Blank lines part the entries; values can stand above or below the molecule they belong to.
What was measured:
[1] = cited from earlier work
Aβ peptide [2] = details: nonhuman primates; cited from earlier work
Aβ peptide [3] = details: oral dose of 95 mg once daily; cited from earlier work
[4] = test system: pigment epithelium of the rat's eye; details: higher compound dose given for three months; cited from earlier work
Aβ peptide [5] = details: sustained and dose-dependent; cited from earlier work
BACE1 [6] = target: T1, BACE1 (Homo sapiens (Human), UniProt P56817); assay: In vitro BACE1 cell-based assay (Aβ40 in conditioned medium of cells stably expressing APP, HTRF)
Description: In Vitro BACE1 Cell-Based Assay
The cell-based assay measures inhibition or reduction of Aβ40 in conditioned medium of test compound treated cells expressing amyloid precursor protein. Cells stably expressing Amyloid Precursor Protein (APP) were plated at a density of 45K cells/well in 384 well plates (Corning/BioCoat 354663). The test compounds were then added to cells in 22-point dose response concentrations with the starting concentration being 62.5 μM. The compounds were diluted from stock solutions in DMSO and the final DMSO concentration of the test compounds on cells was 0.625%. The cells were cultivated overnight at 37° C. and 5% CO2 in DMEM supplemented with 10% FBS. After 24 h of incubation with the test compounds, the conditioned media was collected and the Aβ40 levels were determined using HTRF (Homogeneous Time Resolved Fluorescence). The IC50 of the compound was calculated from the percent of control or percent inhibition of Aβ40 as a function of the concentration of the test compound.
The HTRF to detect Aβ40 was performed in 384 well plates (Costar 3658). The antibody pair that were used to detect Aβ40 from cell supernatants were ConfAb40 antibody (Amgen in-house) and biotinylated 6E10 (BIOLEGEND). As an alternative to ConfAb40, a commercially available antibody, Anti-beta Amyloid 1-40 antibody [BDI350] from Abcam, Cambridge, Mass. 02139-1517 (Product code: ab20068), may be used in this assay. The concentrations were 0.35 μg/mL of ConfAb40 antibody and 1.33 μg/mL of 6E10-biotinylated antibody, as well as 4.5 μg/mL of Streptavidin Allophycocyanin Conjugate (ThermoFisher Scientific) in HTRF Buffer ([…], 1% BSA, 0.5% Tween 20).
The conditioned media was incubated with above antibodies and Streptavidin Allophycocyanin Conjugate for 30-60 minutes at 23° C. The final readout was performed on Envision from PerkinElmer.
Target sequence in this assay (P56817 46-501, species assumed): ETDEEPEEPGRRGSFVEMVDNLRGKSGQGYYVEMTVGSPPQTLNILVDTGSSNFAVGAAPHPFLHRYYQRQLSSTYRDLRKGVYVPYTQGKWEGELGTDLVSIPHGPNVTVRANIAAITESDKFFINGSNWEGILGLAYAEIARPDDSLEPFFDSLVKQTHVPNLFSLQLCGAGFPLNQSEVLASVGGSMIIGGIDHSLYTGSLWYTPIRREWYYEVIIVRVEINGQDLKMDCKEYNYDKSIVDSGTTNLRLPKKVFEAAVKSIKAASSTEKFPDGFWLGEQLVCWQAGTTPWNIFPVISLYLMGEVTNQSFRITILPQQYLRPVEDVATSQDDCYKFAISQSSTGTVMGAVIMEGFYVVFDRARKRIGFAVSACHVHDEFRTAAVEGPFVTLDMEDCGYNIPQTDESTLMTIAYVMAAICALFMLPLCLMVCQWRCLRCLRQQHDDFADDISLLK

BACE1 [7] = target: T1, BACE1; assay: In vitro enzymatic BACE1 FRET assay; type: biochemical; details: pH 4.5, read-out: BACE1 Enzyme IC50
Target sequence in this assay (P56817 46-501): as the sequence (P56817 46-501, species assumed) above

Recombinant CatD = Recombinant CatD (Homo sapiens (Human), UniProt P07339); assay: In vitro enzymatic Cathepsin D (CatD) FRET assay; type: biochemical; details: pH 3.5, read-out: Cat D Enzyme IC50
Chain of Recombinant CatD (P07339 65-412): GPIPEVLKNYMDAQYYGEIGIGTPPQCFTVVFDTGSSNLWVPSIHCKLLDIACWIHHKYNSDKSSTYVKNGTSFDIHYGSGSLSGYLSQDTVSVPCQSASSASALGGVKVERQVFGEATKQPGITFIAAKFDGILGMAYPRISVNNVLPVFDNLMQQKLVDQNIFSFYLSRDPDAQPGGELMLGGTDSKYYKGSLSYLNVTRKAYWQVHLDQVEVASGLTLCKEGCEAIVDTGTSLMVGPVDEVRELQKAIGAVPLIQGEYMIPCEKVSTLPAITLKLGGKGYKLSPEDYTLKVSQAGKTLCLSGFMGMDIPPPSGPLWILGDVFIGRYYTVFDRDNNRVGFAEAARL

human recombinant BACE2 = human recombinant BACE2 (Homo sapiens (Human), UniProt Q9Y5Z0); assay: In vitro enzymatic BACE2 FRET assay; type: biochemical; details: pH 4.5, read-out: BACE2 Enzyme IC50
Chain of human recombinant BACE2 (Q9Y5Z0 63-518): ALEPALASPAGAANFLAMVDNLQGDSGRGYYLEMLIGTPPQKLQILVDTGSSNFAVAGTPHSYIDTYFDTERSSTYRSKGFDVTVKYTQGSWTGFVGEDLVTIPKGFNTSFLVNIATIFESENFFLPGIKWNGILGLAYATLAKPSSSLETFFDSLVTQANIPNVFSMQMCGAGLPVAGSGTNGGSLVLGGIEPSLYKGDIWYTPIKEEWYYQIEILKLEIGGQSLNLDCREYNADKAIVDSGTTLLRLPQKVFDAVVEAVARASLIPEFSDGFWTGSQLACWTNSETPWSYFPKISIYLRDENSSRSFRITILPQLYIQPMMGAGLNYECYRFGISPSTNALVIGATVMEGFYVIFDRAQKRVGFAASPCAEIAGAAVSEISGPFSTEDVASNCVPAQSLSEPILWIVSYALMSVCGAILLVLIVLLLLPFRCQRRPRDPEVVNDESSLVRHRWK

[8] = Aβ40, 24 h incubation, read-out: BACE1 Cell IC50

SMILES: C[C@H]1OC[C@]2(c3cc(NC(=O)c4cnc(C(F)F)cn4)ccc3F)N=C(N)SC[C@H]12 [Example E2609]
clinical safety concerns ([1]; repeated doses up to 200 mg, phase I clinical trial): did not show clinical significant safety concerns
reduction in Aβ peptide levels in the CSF and plasma (Aβ peptide [2]): significant reduction

SMILES: C[C@@]1(c2cc(NC(=O)c3ccc(C#N)cn3)ccc2F)C=CSC(N)=N1 [JNJ-54861911]
Aβ peptide reduction in CSF (Aβ peptide [3]): up to 95%

SMILES: C[C@@]1(c2cc(-c3cncnc3)c(F)cc2F)CCSC(N)=N1 [LY 2811376]
eye toxicity finding [4]: damaged the pigment epithelium of the rat's eye

SMILES: CN1C(=N)N[C@](C)(c2cc(NC(=O)c3ccc(F)cn3)ccc2F)CS1(=O)=O [MK-8931]
safety profile ([1]; phase I clinical trials): excellent safety profile with no immediately noticeable side effects
CSF Aβ peptide concentrations (Aβ peptide [5]): significantly reduced

SMILES: Cc1cc(C#N)cnc1C#Cc1ccc(F)c([C@@]2(C)N=C(N)S[C@@]3(C(=O)N4CCCC4)C[C@H]32)c1 [Example 128, 6-((3-((1S,5S,6S)-3-amino-5-methyl-1-(pyrrolidine-1-carbonyl)-2-thia-4-azabicyclo[4.1.0]hept-3-en-5-yl)-4-fluorophenyl)ethynyl)-5-methylnicotinonitrile]
IC50 (BACE1 [6]): 0.002 µM
IC50 (BACE1 [7]): 0.002 µM
IC50 (Recombinant CatD): 508 µM
IC50 (human recombinant BACE2): 0.423 µM

SMILES: CC#CCOc1ccc(C#Cc2ccc(F)c([C@@]3(CF)N=C(N)S[C@@]4(CF)C[C@H]43)c2)nc1 [Example 105, (1S,5S,6S)-5-(5-((5-(but-2-yn-1-yloxy)pyridin-2-yl)ethynyl)-2-fluorophenyl)-1,5-bis(fluoromethyl)-2-thia-4-azabicyclo[4.1.0]hept-3-en-3-amine]
IC50 (BACE1 [6]; [8]): 0.746 µM
IC50 (BACE1 [7]): 0.096 µM
IC50 (Recombinant CatD): 500 µM
IC50 (human recombinant BACE2): 10.3 µM

SMILES: COC[C@]12CC1[C@@](C)(c1cc(C#Cc3ncc(C#N)cc3C)ccc1F)N=C(N)S2 (stereo partly drawn) [Example 135, 6-((3-((1S,5S)-3-amino-1-(methoxymethyl)-5-methyl-2-thia-4-azabicyclo[4.1.0]hept-3-en-5-yl)-4-fluorophenyl)ethynyl)-5-methylnicotinonitrile]
IC50 (BACE1 [6]): 0.033 µM
IC50 (BACE1 [7]): 0.023 µM
IC50 (Recombinant CatD): > 400 µM
IC50 (human recombinant BACE2): 1.47 µM

SMILES: COC[C@]12CC1[C@@](C)(c1cc(C#Cc3ccc(C#N)cn3)ccc1F)N=C(N)S2 (stereo partly drawn) [Example 133, 6-((3-((1S,5S)-3-amino-1-(methoxymethyl)-5-methyl-2-thia-4-azabicyclo[4.1.0]hept-3-en-5-yl)-4-fluorophenyl)ethynyl)nicotinonitrile]
IC50 (BACE1 [6]): 0.059 µM
IC50 (BACE1 [7]): 0.097 µM
IC50 (Recombinant CatD): > 400 µM
IC50 (human recombinant BACE2): 2.33 µM

Continued, values first:

IC50 (BACE1 [6]; [8]): 0.06 µM
IC50 (BACE1 [7]): 0.049 µM
IC50 (Recombinant CatD): 188 µM
IC50 (human recombinant BACE2): 0.126 µM
SMILES: N#Cc1ccc(C#Cc2ccc(F)c([C@@]3(CF)N=C(N)S[C@@]4(CCC(=O)N5CCOCC5)C[C@H]43)c2)nc1 [Example 119, 6-((3-((1S,5S,6S)-3-amino-5-(fluoromethyl)-1-(3-morpholino-3-oxopropyl)-2-thia-4-azabicyclo[4.1.0]hept-3-en-5-yl)-4-fluorophenyl)ethynyl)nicotinonitrile]

IC50 (BACE1 [6]; [8]): 0.072 µM
IC50 (BACE1 [7]): 0.019 µM
IC50 (Recombinant CatD): 300 µM
IC50 (human recombinant BACE2): 0.405 µM
SMILES: N#Cc1ccc(C#Cc2ccc(F)c([C@@]3(CF)N=C(N)S[C@@]4(/C=C/C(=O)N5CCOCC5)C[C@H]43)c2)nc1 [Example 111, 6-((3-((1R,5S,6S)-3-amino-5-(fluoromethyl)-1-((E)-3-morpholino-3-oxoprop-1-en-1-yl)-2-thia-4-azabicyclo[4.1.0]hept-3-en-5-yl)-4-fluorophenyl)ethynyl)nicotinonitrile]

IC50 (BACE1 [6]; [8]): 0.372 µM
IC50 (BACE1 [7]): 0.047 µM
IC50 (Recombinant CatD): 239 µM
IC50 (human recombinant BACE2): 2.55 µM
SMILES: N#C/C=C/[C@]12C[C@H]1[C@@](CF)(c1cc(C#Cc3ccc(C#N)cn3)ccc1F)N=C(N)S2 [Example 107, 6-((3-((1R,5S,6S)-3-amino-1-((E)-2-cyanovinyl)-5-(fluoromethyl)-2-thia-4-azabicyclo[4.1.0]hept-3-en-5-yl)-4-fluorophenyl)ethynyl)nicotinonitrile]

IC50 (BACE1 [6]; [8]): 1.9 µM
IC50 (BACE1 [7]): 0.009 µM
IC50 (Recombinant CatD): 143 µM
IC50 (human recombinant BACE2): 0.047 µM
SMILES: N#Cc1cnc(C#Cc2ccc(F)c([C@@]3(CF)N=C(N)S[C@@]4(/C=C/C(=O)N5CCOCC5)C[C@H]43)c2)nc1 [Example 121, 2-((3-((1R,5S,6S)-3-amino-5-(fluoromethyl)-1-((E)-3-morpholino-3-oxoprop-1-en-1-yl)-2-thia-4-azabicyclo[4.1.0]hept-3-en-5-yl)-4-fluorophenyl)ethynyl)pyrimidine-5-carbonitrile]

IC50 (BACE1 [6]; [8]): 0.153 µM
IC50 (BACE1 [7]): 0.116 µM
IC50 (Recombinant CatD): 1420 µM
IC50 (human recombinant BACE2): 3.76 µM
SMILES: N#Cc1ccc(C#Cc2ccc(F)c([C@@]3(CF)N=C(N)S[C@@]4(CC(N)=O)C[C@H]43)c2)nc1 [Example 113, 2-((1R,5S,6S)-3-amino-5-(5-((5-cyanopyridin-2-yl)ethynyl)-2-fluorophenyl)-5-(fluoromethyl)-2-thia-4-azabicyclo[4.1.0]hept-3-en-1-yl)acetamide]

IC50 (BACE1 [6]; [8]): 0.129 µM
IC50 (BACE1 [7]): 0.08 µM
IC50 (Recombinant CatD): 4870 µM
IC50 (human recombinant BACE2): 4.55 µM
SMILES: N#Cc1ccc(C#Cc2ccc(F)c([C@@]3(CF)N=C(N)S[C@@]4(CO)C[C@H]43)c2)nc1 [Example 100, 6-((3-((1S,5S,6S)-3-amino-5-(fluoromethyl)-1-(hydroxymethyl)-2-thia-4-azabicyclo[4.1.0]hept-3-en-5-yl)-4-fluorophenyl)ethynyl)nicotinonitrile]

IC50 (BACE1 [6]; [8]): 0.118 µM
IC50 (BACE1 [7]): 0.583 µM
IC50 (Recombinant CatD): 248 µM
IC50 (human recombinant BACE2): 8.08 µM
SMILES: N#Cc1ccc(C#Cc2ccc(F)c([C@@]3(CF)N=C(N)S[C@@]4(Cn5ccnc5)C[C@H]43)c2)nc1 [Example 125, 6-((3-((1S,5S,6S)-1-((1H-imidazol-1-yl)methyl)-3-amino-5-(fluoromethyl)-2-thia-4-azabicyclo[4.1.0]hept-3-en-5-yl)-4-fluorophenyl)ethynyl)nicotinonitrile]

IC50 (BACE1 [6]; [8]): 0.052 µM
IC50 (BACE1 [7]): 0.011 µM
IC50 (Recombinant CatD): 190 µM
IC50 (human recombinant BACE2): 0.179 µM
SMILES: Cc1cc(C#N)cnc1C#Cc1ccc(F)c([C@@]2(CF)N=C(N)S[C@@]3(CCC(=O)N4CCOCC4)C[C@H]32)c1 [Example 120, 6-((3-((1S,5S,6S)-3-amino-5-(fluoromethyl)-1-(3-morpholino-3-oxopropyl)-2-thia-4-azabicyclo[4.1.0]hept-3-en-5-yl)-4-fluorophenyl)ethynyl)-5-methylnicotinonitrile]

Reference: patent publication US10889581B2, “Cyclopropyl fused thiazine derivatives as beta-secretase inhibitors and methods of use” (AMGEN INC., priority 2016, dated 2021)
